# Reference: patent publication US20260022142A1, “MACROCYCLIC IMMUNOMODULATORS” (Bristol-Myers Squibb Company, priority 2022, published 2026)
# Numbered stars: 1 amine (or outer) side, 2 acyl side, 3 side chain; on linkers, the order of the positions; unused ones are H or OH. Bridge positions count the residues as written; N and C are the ends. Square brackets hold non-standard residues; d marks the D form. Peptide text beside a SMILES is read from it. * marks the point of attachment. ξ: configuration not given here. Phe(4-CH2CH2COOH) = N[C@@H](Cc1ccc(CCC(=O)O)cc1)C(=O)O; Phe(4-COOH) = N[C@@H](Cc1ccc(C(=O)O)cc1)C(=O)O; X9 = O=C([C@H](Cc1cc(F)c(F)cc1F)N[*:1])[*:2]; Bip = N[C@@H](Cc1ccc(-c2ccccc2)cc1)C(=O)O; Phe(3-Me) = Cc1cccc(C[C@H](N)C(=O)O)c1; γGlu = O=C(O)[C@H](CCC(=O)[*:2])N[*:1]; Val(3-OH) = CC(C)(O)[C@H](N)C(=O)O; 4Pal = N[C@@H](Cc1ccncc1)C(=O)O; 3Thi = N[C@@H](Cc1ccsc1)C(=O)O; Cha = N[C@@H](CC1CCCCC1)C(=O)O; Cit = NC(=O)NCCC[C@H](N)C(=O)O; Thr(3ξ) = CC(O)[C@H](N)C(=O)O; Tle = CC(C)(C)[C@H](N)C(=O)O; Carboxymethyl = O=C(O)C*; Orn = NCCC[C@H](N)C(=O)O; Aun = NCCCCCCCCCCC(=O)O; Dab = NCC[C@H](N)C(=O)O; Dap = NC[C@H](N)C(=O)O; AEEA = NCCOCCOCC(=O)O; Aib = CC(C)(N)C(=O)O
# Target: T1, PD-1/PD-L1 interaction (PE-labeled human PD-L1-Ig binding to Jurkat cell line over-expressing human PD-1) (Homo sapiens, UniProt Q15116)
# T1 construct: expressed in transfected cells; host or cells: Jurkat
# Assay: Jurkat-PD-1 Cell Binding High-Content Screening Assay (CBA)
# Format: cell-based
# Settings: Jurkat cell line over-expressing human PD-1; PE-labeled PD-L1-Ig 20 nM final; read-out: Jurkat hPD1-PDL1 IC50
# Method in brief: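 Human PD-L1-Ig carrying a covalent PE label on its Ig tag serves as the probe, applied at 20 nM final to compound-treated (2 h, 37° C) Jurkat-hPD-1 cells in medium with 10% fetal calf serum. After one hour, fixation and nuclear staining precede high-content image analysis.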
# T1 sequence (Q15116 25-288): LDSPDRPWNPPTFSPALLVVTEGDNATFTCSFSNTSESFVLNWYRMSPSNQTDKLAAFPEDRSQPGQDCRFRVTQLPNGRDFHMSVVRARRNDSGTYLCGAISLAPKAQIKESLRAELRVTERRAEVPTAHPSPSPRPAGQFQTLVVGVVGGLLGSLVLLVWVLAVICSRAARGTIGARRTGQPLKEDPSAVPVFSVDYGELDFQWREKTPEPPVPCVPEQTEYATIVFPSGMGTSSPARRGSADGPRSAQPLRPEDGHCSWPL
row,IC50,SMILES
1,59.7 nM,CC(C)C[C@H]1NC(=O)[C@H](CCCN)NC(=O)[C@H](Cc2ccc(O)cc2)NC(=O)[C@H](Cc2ccc(-c3ccccc3)cc2)NC(=O)[C@H](C(C)C)NC(=O)[C@H](Cc2cc(F)c(F)cc2F)NC(=O)[C@H](CC(=O)O)NC(=O)[C@H](Cc2ccc(OCC(=O)O)cc2)NC(=O)[C@H](CN)NC(=O)CSC[C@@H](C(=O)N[C@@H](CCN)C(=O)NCCOCCOCC(=O)NCCCCCCCCCCC(=O)O)NC(=O)[C@H](CCCN)NC(=O)[C@H](C(C)C)NC(=O)[C@H](CC2CCCCC2)NC(=O)[C@H](CCN)NC1=O [Compound 1308] ({CH2CO}-[Dap]Y(Carboxymethyl)D[X9]V[Bip]Y[Orn][dL][Dab][Cha]V[Orn]C[Dab][AEEA][Aun]-OH; thioether N-14)
2,16.9 nM,Cc1cccc(C[C@@H]2NC(=O)[C@H](CC(=O)O)NC(=O)[C@H](Cc3ccc(OCC(=O)O)cc3)NC(=O)[C@H](C(C)O)NC(=O)CSC[C@@H](C(=O)N[C@@H](CCCCN)C(=O)NCCCCCCCCCCC(=O)O)NC(=O)[C@H](CCCCN)NC(=O)[C@H](C(C)C)NC(=O)[C@H](CC3CCCCC3)NC(=O)[C@H](CCN)NC(=O)[C@@H](CC(C)C)NC(=O)[C@H](CCCN)NC(=O)[C@H](CCCNC(N)=O)NC(=O)[C@H](Cc3ccc(-c4ccccc4)cc3)NC(=O)[C@H](C(C)C)NC2=O)c1 (stereo partly drawn) [Compound 3469] ({CH2CO}-[Thr(3ξ)]Y(Carboxymethyl)D[Phe(3-Me)]V[Bip][Cit][Orn][dL][Dab][Cha]VKCK[Aun]-OH; thioether N-14)
3,51.4 nM,Cc1cccc(C[C@@H]2NC(=O)[C@H](CC(=O)O)NC(=O)[C@H](Cc3ccc(OCC(=O)O)cc3)NC(=O)[C@H](CCCNC(=N)N)NC(=O)CSC[C@@H](C(=O)N[C@H](CC(N)=O)C(=O)NCCCCCCCCCCC(=O)O)NC(=O)[C@H](CO)NC(=O)[C@H](C(C)(C)C)NC(=O)[C@H](CC3CCCCC3)NC(=O)[C@H](CCN)NC(=O)[C@@H](CC(C)C)NC(=O)[C@H](CCCN)NC(=O)[C@H](Cc3ccc(OCC(=O)O)cc3)NC(=O)[C@H](Cc3ccc(-c4ccccc4)cc3)NC(=O)[C@H](Cc3ccc(OCC(=O)O)cc3)NC2=O)c1 [Compound 3527] ({CH2CO}-RY(Carboxymethyl)D[Phe(3-Me)]Y(Carboxymethyl)[Bip]Y(Carboxymethyl)[Orn][dL][Dab][Cha][Tle]SC[dN][Aun]-OH; thioether N-14)
4,7.5 nM,CC(C)C[C@H]1NC(=O)[C@H](CCCN)NC(=O)[C@H](C(C)C)NC(=O)[C@H](Cc2ccc(-c3ccccc3)cc2)NC(=O)[C@H](C(C)C)NC(=O)[C@H](Cc2c[nH]c3ccccc23)NC(=O)[C@H](CC(=O)O)NC(=O)[C@H](Cc2ccc(OCC(=O)O)cc2)NC(=O)[C@H](CN)NC(=O)CSC[C@@H](C(=O)N[C@@H](CCN)C(=O)NCCOCCOCC(=O)N[C@@H](CCC(=O)NCCCCCCCCCCC(=O)O)C(=O)O)NC(=O)[C@H](CN)NC(=O)[C@H](C(C)O)NC(=O)[C@H](CC2CCCCC2)NC(=O)[C@H](CCN)NC1=O (stereo partly drawn) [Compound 3649] ({CH2CO}-[Dap]Y(Carboxymethyl)DWV[Bip]V[Orn][dL][Dab][Cha][Thr(3ξ)][Dap]C[Dab][AEEA][γGlu][Aun]-OH; thioether N-14)
5,8 nM,CC(C)C[C@H]1NC(=O)[C@H](CCN)NC(=O)[C@H](C(C)C)NC(=O)[C@H](Cc2ccc(-c3ccccc3)cc2)NC(=O)[C@H](C(C)C)NC(=O)[C@H](Cc2c[nH]c3ccccc23)NC(=O)[C@H](CC(=O)O)NC(=O)[C@H](Cc2ccc(OCC(=O)O)cc2)NC(=O)[C@H](Cc2ccsc2)NC(=O)CSC[C@@H](C(=O)NCCOCCOCC(=O)N[C@@H](CCCN)C(=O)NCCCCCCCCCCC(=O)O)NC(=O)[C@H](C(C)O)NC(=O)[C@H](C(C)C)NC(=O)[C@H](CC2CCCCC2)NC(=O)[C@H](CCN)NC1=O (stereo partly drawn) [Compound 3210] ({CH2CO}-[3Thi]Y(Carboxymethyl)DWV[Bip]V[Dab][dL][Dab][Cha]V[Thr(3ξ)]C[AEEA][Orn][Aun]-OH; thioether N-14)
6,181 nM,Cc1cccc(C[C@@H]2NC(=O)[C@H](CC(=O)O)NC(=O)[C@H](Cc3ccc(CCC(=O)O)cc3)NC(=O)[C@H](CCCNC(=N)N)NC(=O)CSC[C@@H](C(=O)N[C@@H](CCN)C(=O)N[C@@H](CO)C(=O)NCCCCCCCCCCC(=O)O)NC(=O)[C@H](CCC(=O)O)NC(=O)[C@H](C(C)C)NC(=O)[C@H](CC3CCCCC3)NC(=O)[C@H](CCN)NC(=O)[C@@H](CC(C)C)NC(=O)[C@H](CCN)NC(=O)[C@H](CCCNC(N)=O)NC(=O)[C@H](Cc3ccc(-c4ccccc4)cc3)NC(=O)[C@H](C(C)C)NC2=O)c1 [Compound 2813] ({CH2CO}-R[Phe(4-CH2CH2COOH)]D[Phe(3-Me)]V[Bip][Cit][Dab][dL][Dab][Cha]VEC[Dab]S[Aun]-OH; thioether N-14)
7,15.5 nM,CC(C)C[C@H]1NC(=O)[C@H](CCCN)NC(=O)[C@H](C(C)C)NC(=O)[C@H](Cc2ccc(-c3ccccc3)cc2)NC(=O)[C@H](C(C)C)NC(=O)[C@H](Cc2c[nH]c3ccccc23)NC(=O)[C@H](CC(=O)O)NC(=O)[C@H](Cc2ccc(OCC(=O)O)cc2)NC(=O)[C@H](Cc2ccncc2)NC(=O)CSC[C@@H](C(=O)N[C@@H](CCN)C(=O)NCCCCCCCCCCC(=O)O)NC(=O)[C@H](CN)NC(=O)[C@H](C(C)C)NC(=O)[C@H](CC2CCCCC2)NC(=O)[C@H](CCN)NC1=O [Compound 3294] ({CH2CO}-[4Pal]Y(Carboxymethyl)DWV[Bip]V[Orn][dL][Dab][Cha]V[Dap]C[Dab][Aun]-OH; thioether N-14)
8,5.1 nM,CC(C)C[C@H]1NC(=O)[C@H](CCCCN)NC(=O)[C@H](C(C)C)NC(=O)[C@H](Cc2ccc(-c3ccccc3)cc2)NC(=O)[C@H](C(C)C)NC(=O)[C@H](Cc2c[nH]c3ccccc23)NC(=O)[C@H](CC(=O)O)NC(=O)[C@H](Cc2ccc(OCC(=O)O)cc2)NC(=O)[C@H](CC(N)=O)NC(=O)CSC[C@@H](C(=O)NCCOCCOCC(=O)N[C@@H](CCCN)C(=O)NCCCCCCCCCCC(=O)O)NC(=O)[C@H](CO)NC(=O)[C@H](C(C)C)NC(=O)[C@H](CC2CCCCC2)NC(=O)[C@H](CCN)NC1=O [Compound 3070] ({CH2CO}-NY(Carboxymethyl)DWV[Bip]VK[dL][Dab][Cha]VSC[AEEA][Orn][Aun]-OH; thioether N-14)
9,11.4 nM,CC(C)C[C@H]1NC(=O)[C@H](CCCN)NC(=O)[C@H](C(C)C)NC(=O)[C@H](Cc2ccc(-c3ccccc3)cc2)NC(=O)[C@H](C(C)C)NC(=O)[C@H](Cc2c[nH]c3ccccc23)NC(=O)[C@H](CC(=O)O)NC(=O)[C@H](Cc2ccc(OCC(=O)O)cc2)NC(=O)[C@H](CN)NC(=O)CSC[C@@H](C(=O)N[C@@H](CCCN)C(=O)NCCOCCOCC(=O)NCCCCCCCCCCC(=O)O)NC(=O)[C@H](C(C)O)NC(=O)[C@H](C(C)C)NC(=O)[C@H](CC2CCCCC2)NC(=O)[C@H](CCN)NC1=O (stereo partly drawn) [Compound 3191] ({CH2CO}-[Dap]Y(Carboxymethyl)DWV[Bip]V[Orn][dL][Dab][Cha]V[Thr(3ξ)]C[Orn][AEEA][Aun]-OH; thioether N-14)
10,36.7 nM,Cc1cccc(C[C@@H]2NC(=O)[C@H](CC(=O)O)NC(=O)[C@H](Cc3ccc(O)cc3)NC(=O)[C@H](CC(N)=O)NC(=O)CSC[C@@H](C(=O)N[C@@H](CCN)C(=O)NCCCCCCCCCCC(=O)O)NC(=O)[C@@H](CCC(N)=O)NC(=O)[C@H](C(C)C)NC(=O)[C@H](CC(C)C)NC(=O)[C@H](CCN)NC(=O)[C@@H](CC(C)C)NC(=O)[C@H](CCCN)NC(=O)[C@H](CCCNC(N)=O)NC(=O)[C@H](Cc3ccc(-c4ccccc4)cc3)NC(=O)[C@H](C(C)C)NC2=O)c1 [Compound 2791] ({CH2CO}-NYD[Phe(3-Me)]V[Bip][Cit][Orn][dL][Dab]LV[dQ]C[Dab][Aun]-OH; thioether N-14)
11,21.8 nM,Cc1cccc(C[C@@H]2NC(=O)[C@H](CC(=O)O)NC(=O)[C@H](Cc3ccc(OCC(=O)O)cc3)NC(=O)[C@H](CN)NC(=O)CSC[C@@H](C(=O)NC(C)(C)C(=O)N[C@@H](CCC(=O)O)C(=O)NCCCCCCCCCCC(=O)O)NC(=O)[C@H]([C@@H](C)O)NC(=O)[C@H](C(C)C)NC(=O)[C@H](CC3CCCCC3)NC(=O)[C@H](CCN)NC(=O)[C@@H](CC(C)C)NC(=O)[C@H](CCCN)NC(=O)[C@H](CCCNC(N)=O)NC(=O)[C@H](Cc3ccc(-c4ccccc4)cc3)NC(=O)[C@H](C(C)C)NC2=O)c1 [Compound 2784] ({CH2CO}-[Dap]Y(Carboxymethyl)D[Phe(3-Me)]V[Bip][Cit][Orn][dL][Dab][Cha]VTC[Aib]E[Aun]-OH; thioether N-14)
12,12.4 nM,CC(C)C[C@H]1NC(=O)[C@H](CCCN)NC(=O)[C@H](C(C)C)NC(=O)[C@H](Cc2ccc(-c3ccccc3)cc2)NC(=O)[C@H](C(C)C)NC(=O)[C@H](Cc2c[nH]c3ccccc23)NC(=O)[C@H](CC(=O)O)NC(=O)[C@H](Cc2ccc(OCC(=O)O)cc2)NC(=O)[C@H](Cc2ccc(OCC(=O)O)cc2)NC(=O)CSC[C@@H](C(=O)NCC(=O)NCCOCCOCC(=O)N[C@@H](CCCN)C(=O)NCCCCCCCCCCC(=O)O)NC(=O)[C@H](CCCN)NC(=O)[C@H](C(C)C)NC(=O)[C@H](CC2CCCCC2)NC(=O)[C@H](CC(N)=O)NC1=O [Compound 3205] ({CH2CO}-Y(Carboxymethyl)Y(Carboxymethyl)DWV[Bip]V[Orn][dL]N[Cha]V[Orn]CG[AEEA][Orn][Aun]-OH; thioether N-14)
13,12.4 nM,Cc1cccc(C[C@@H]2NC(=O)[C@H](CC(=O)O)NC(=O)[C@H](Cc3ccc(OCC(=O)O)cc3)NC(=O)[C@H](CCN)NC(=O)CSC[C@@H](C(=O)N[C@@H](CCN)C(=O)NCCCCCCCCCCC(=O)O)NC(=O)[C@H](CO)NC(=O)[C@H](C(C)(C)O)NC(=O)[C@H](CC3CCCCC3)NC(=O)[C@H](Cc3c[nH]cn3)NC(=O)[C@@H](CC(C)C)NC(=O)[C@H](CCCN)NC(=O)[C@H](Cc3ccc(OCC(=O)O)cc3)NC(=O)[C@H](Cc3ccc(-c4ccccc4)cc3)NC(=O)[C@H](Cc3ccc(C(=O)O)cc3)NC2=O)c1 [Compound 3714] ({CH2CO}-[Dab]Y(Carboxymethyl)D[Phe(3-Me)][Phe(4-COOH)][Bip]Y(Carboxymethyl)[Orn][dL]H[Cha][Val(3-OH)]SC[Dab][Aun]-OH; thioether N-14)
